Laboratory results published in PubChem BioAssay (NCI).
“And” between values parts separate entries of the source, which are not always exact repeats. Equal values may be shown once.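 Method: 48-hour compound exposure of cells in 96-well plates, five concentrations, linear interpolation of endpoints. GI50 is the concentration that inhibits growth by half. TGI: total growth inhibition.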

Key:
Test in all cases: growth of human tumour cells (NCI), 48 h
[1] = system: 786-0 renal
[2] = system: OVCAR-3 ovarian
[3] = system: RPMI-8226 leukemia
[4] = system: ACHN renal
[5] = system: UACC-62 melanoma
[6] = system: CCRF-CEM leukemia
[7] = system: SN12C renal
[8] = system: IGROV1 ovarian
[9] = system: HL-60(TB) leukemia
[10] = system: OVCAR-8 ovarian

| Compound | GI50 [1] | TGI [1] | GI50 [2] | TGI [2] | GI50 [3] | TGI [3] | GI50 [4] | TGI [4] | GI50 [5] | TGI [5] | GI50 [6] | TGI [6] | GI50 [7] | TGI [7] | GI50 [8] | TGI [8] | GI50 [9] | TGI [9] | GI50 [10] | TGI [10] |
| --- | --- | --- | --- | --- | --- | --- | --- | --- | --- | --- | --- | --- | --- | --- | --- | --- | --- | --- | --- | --- |
| CC1OC2CC(=O)OC2C2=C1C(=O)c1c(O)c3c(c(O)c1C2=O)C1CC(O)C3(O)C(C)O1 (stereo unspecified) | 0.635 µM | 1.78 µM | 0.207 µM | 0.629 µM | 0.267 µM | 0.876 µM | 0.555 µM | 10.4 µM | 0.734 µM | 2.13 µM | 0.26 µM | 13.6 µM | 0.211 µM | 0.539 µM | 0.329 µM | 1.7 µM | 0.234 µM | 1.06 µM | 0.271 µM | 3.5 µM |
| CC[C@H](CC#N)OC(=O)N[C@@H](C)c1cccc(NC(=O)Nc2ccc(-c3cnco3)c(OC)c2)c1 | 0.188 µM | > 93 µM | 0.0894 µM | 45 µM | 0.152 µM | 19.4 µM | 0.0872 µM | 45.1 µM | 0.141 µM | 24.5 µM | < 0.023 µM | 35.8 µM | 0.111 µM | 79.3 µM | 0.0514 µM | 24.2 µM | 0.184 µM | 38.5 µM | 0.0612 µM | 23.5 µM |
| COC(=O)CNC(=O)[C@@H](OC)[C@@H]1Cc2cc3cc(OC4CC(OC5CC(O)C(O)C(C)O5)C(O)C(C)O4)c(C)c(O)c3c(O)c2C(=O)[C@H]1OC1CC(OC2CC(OC3CC(C)(O)C(O)C(C)O3)C(O)C(C)O2)C(O)C(C)O1 (stereo partly specified) | 0.26 µM | > 50 µM | 0.204 µM | 4.27 µM | 0.116 µM | 1.38 µM | 0.19 µM | 6.94 µM | 0.0536 µM | 0.26 µM | 0.186 µM | > 50 µM | 0.138 µM | > 50 µM | 0.192 µM | > 50 µM | 1.08 µM | 49.1 µM | 0.122 µM | > 50 µM |
| CN(C)CCOc1ccc2c(c1)C/C(=C/c1ncc([N+](=O)[O-])n1C)C2=O |  | 26.4 µM |  | 6.27 µM |  | 4.46 µM |  | 4.71 µM |  | 4.97 µM |  | 15.1 µM |  | 9.78 µM |  | 1.49 µM |  | 71.7 µM |  | 8.01 µM |
| CC(CNC(Cc1ccccc1)c1ccccc1)NC(Cc1ccccc1)c1ccccc1 (stereo unspecified) | 1.67 µM | 3.36 µM | 2.07 µM | 4.56 µM | 2.23 µM | 4.88 µM | 2.93 µM | 8.85 µM | 1.8 µM | 3.8 µM | 2.74 µM | 7.84 µM | 2.22 µM | 6.38 µM | 2.76 µM | 10.5 µM | 2 µM | 4.51 µM | 2.6 µM | 6.17 µM |
| Cc1cc(C(C#N)c2ccc(Cl)cc2)c(Cl)cc1NC(=O)c1cc(I)cc(I)c1O (stereo unspecified) | 12.6 µM and 16.6 µM | 25.1 µM and 34.7 µM | 8.33 µM and 14.2 µM | 23.5 µM and 28.5 µM | 3.15 µM and 11.1 µM | 13 µM and 43.5 µM | 15.5 µM and 17.2 µM | 46.1 µM and 37.1 µM | 2.96 µM and 8.79 µM | 11.5 µM and 23.8 µM | 3.87 µM and 17.8 µM | 17 µM and 47.1 µM | 3.57 µM and 15.4 µM | 35.6 µM and 39.2 µM | 10.5 µM and 16.1 µM | 40.9 µM and 36.5 µM | 4.34 µM and 22.1 µM | 15.9 µM and 48.9 µM | 6.02 µM and 21.4 µM | > 100 µM and 52.1 µM |
| CCOc1ccc(NCc2cc(OC)c(OC)c(OC)c2)cc1 |  | > 100 µM |  | 1.65 µM and 2.22 µM |  | 57 µM and > 74.6 µM |  | > 100 µM |  | > 100 µM | 0.759 µM and 1.7 µM | > 74.9 µM | 1.41 µM and 7.91 µM | > 100 µM |  | > 84 µM |  | 19.2 µM and 33.8 µM | 5.75 µM and 2.31 µM | > 80.7 µM and 62.6 µM |
| CN(C)C(=S)N=Nc1c(O)[nH]c2ccccc12 | 0.891 µM | 12.2 µM | 0.261 µM | 1.18 µM | 0.418 µM | 33.5 µM | 0.526 µM | 11.4 µM | 0.578 µM | 4.56 µM | 0.298 µM |  | 0.578 µM | 17.9 µM | 0.508 µM | 7.39 µM | 1.32 µM | 7.24 µM | 0.525 µM | 26 µM |
| C=C1C(=O)O[C@H]2[C@H]1CC/C(COC(=O)N1CCC[C@H]1C(=O)Nc1ccc(OC)c(C(N)=O)c1O)=C\CC[C@@]1(C)O[C@@H]21 | 2.27 µM | 6.56 µM | 1.86 µM | 4.48 µM | 1.93 µM | 4.87 µM | 2.9 µM | 10.9 µM | 2.39 µM | 7.66 µM | 1.65 µM | 5.95 µM | 2.96 µM | 10.3 µM | 2.82 µM | 9.13 µM | 1.59 µM | 4.83 µM | 4.73 µM | 26 µM |
| OCCCCCCOc1ccc(-c2cc(-c3ccccn3)nc(-c3ccccn3)c2)cc1 |  | 0.551 µM |  | 1.32 µM |  | 1.88 µM |  | 5.22 µM |  | 0.933 µM |  | 1.08 µM |  | 3.02 µM |  | 2.7 µM |  | 0.514 µM |  | 1.7 µM |
| COc1ccc(O)c(C#N)c1C#N |  | > 100 µM |  | > 100 µM |  | > 100 µM |  | > 100 µM |  | > 100 µM |  | > 100 µM |  | > 100 µM |  | > 100 µM |  | > 100 µM |  | > 100 µM |
| CC(C)CC1=[N+]=C(NC#N)N=C(CCC(=O)Nc2ccccc2[N+](=O)[O-])C1 |  | > 100 µM |  | > 100 µM |  | > 100 µM |  | > 100 µM |  | > 100 µM |  | > 100 µM |  | > 100 µM |  | > 100 µM |  | > 100 µM |  | > 100 µM |
| O=C1C2=C(c3ccccc31)C(c1ccccc1)NC(=S)N2 (stereo unspecified) |  | 85 µM |  | > 100 µM |  | > 100 µM |  | > 100 µM |  | > 100 µM |  | > 100 µM |  | > 100 µM |  | > 100 µM |  | 39.6 µM |  | > 100 µM |
| Cc1cc2c3ccccc3n(C)c2c2c1C(=O)C=CC2=O |  | 13.4 µM |  | 28.3 µM |  | 5.47 µM |  | 41.7 µM |  | 32.4 µM |  | > 36 µM |  | 35.9 µM |  | 36.8 µM |  | > 68 µM |  | 62.7 µM |
| O=C1/C(=C/c2ccc(O)cc2)COc2ccc(-c3ccccc3)cc21 | 12 µM | 32.3 µM | 2.49 µM | 8.14 µM | 1.4 µM | 7.68 µM | 12.3 µM | 25.1 µM | 12.7 µM | 25.6 µM | 0.237 µM |  | 7.29 µM | 24.8 µM | 6.12 µM | 20.8 µM | 0.465 µM | > 38.2 µM | 9.27 µM | 23.1 µM |
